From ChEMBL document CHEMBL5131391, “One-pot three-component synthesis of novel pyrazolo[3,4-b]pyridines as potent antileukemic agents” (Eur J Med Chem, 2022)

tested on: K562; assay: Antiproliferative activity against human K562 cells assessed as reduction in cell viability incubated for 72 hrs by resazurin dye based assay; assay type: functional; conditions: K562, 72 h

SMILES | IC50 [µM]
N#Cc1c(-c2ccccc2)nc2c(c(-c3ccccc3)nn2-c2ccccc2)c1-c1ccc(O)cc1 | 9.6

tested on: RPMI-8226; assay: Antiproliferative activity against human RPMI-8226 cells assessed as growth inhibition at 10 uM measured after 48 hrs by NCI protocol based SRB assay relative to control; assay type: functional; conditions: read-out: GI

SMILES | inhibition of growth at 10 µM [%]
N#Cc1c(-c2ccccc2)nc2c(c(-c3ccccc3)nn2-c2ccccc2)c1-c1ccc(O)cc1 | 87

tested on: HOP-92; assay: Antiproliferative activity against human HOP-92 cells assessed as growth inhibition at 10 uM measured after 48 hrs by NCI protocol based SRB assay relative to control; assay type: functional; conditions: read-out: GI

SMILES | inhibition of growth at 10 µM [%]
N#Cc1c(-c2ccccc2)nc2c(c(-c3ccccc3)nn2-c2ccccc2)c1-c1ccc(O)cc1 | 50

tested on: A549; assay: Antiproliferative activity against human A549 cells assessed as growth inhibition at 10 uM measured after 48 hrs by NCI protocol based SRB assay relative to control; assay type: functional; conditions: read-out: GI

SMILES | inhibition of growth at 10 µM [%]
N#Cc1c(-c2ccccc2)nc2c(c(-c3ccccc3)nn2-c2ccccc2)c1-c1ccc(O)cc1 | 59

tested on: EKVX; assay: Antiproliferative activity against human EKVX cells assessed as growth inhibition at 10 uM measured after 48 hrs by NCI protocol based SRB assay relative to control; assay type: functional; conditions: read-out: GI

SMILES | inhibition of growth at 10 µM [%]
N#Cc1c(-c2ccccc2)nc2c(c(-c3ccccc3)nn2-c2ccccc2)c1-c1ccc(O)cc1 | 55

tested on: NCI-H460; assay: Antiproliferative activity against human NCI-H460 cells assessed as growth inhibition at 10 uM measured after 48 hrs by NCI protocol based SRB assay relative to control; assay type: functional; conditions: read-out: GI

SMILES | inhibition of growth at 10 µM [%]
N#Cc1c(-c2ccccc2)nc2c(c(-c3ccccc3)nn2-c2ccccc2)c1-c1ccc(O)cc1 | 91

tested on: NCI-H522; assay: Antiproliferative activity against human NCI-H522 cells assessed as growth inhibition at 10 uM measured after 48 hrs by NCI protocol based SRB assay relative to control; assay type: functional; conditions: read-out: GI

SMILES | inhibition of growth at 10 µM [%]
N#Cc1c(-c2ccccc2)nc2c(c(-c3ccccc3)nn2-c2ccccc2)c1-c1ccc(O)cc1 | 99

tested on: NCI-H322M; assay: Antiproliferative activity against human NCI-H322M cells assessed as growth inhibition at 10 uM measured after 48 hrs by NCI protocol based SRB assay relative to control; assay type: functional; conditions: read-out: GI

SMILES | inhibition of growth at 10 µM [%]
N#Cc1c(-c2ccccc2)nc2c(c(-c3ccccc3)nn2-c2ccccc2)c1-c1ccc(O)cc1 | 34

tested on: NCI-H23; assay: Antiproliferative activity against human NCI-H23 cells assessed as growth inhibition at 10 uM measured after 48 hrs by NCI protocol based SRB assay relative to control; assay type: functional; conditions: read-out: GI

SMILES | inhibition of growth at 10 µM [%]
N#Cc1c(-c2ccccc2)nc2c(c(-c3ccccc3)nn2-c2ccccc2)c1-c1ccc(O)cc1 | 56

tested on: HCT-15; assay: Antiproliferative activity against human HCT-15 cells assessed as growth inhibition at 10 uM measured after 48 hrs by NCI protocol based SRB assay relative to control; assay type: functional; conditions: read-out: GI

SMILES | inhibition of growth at 10 µM [%]
N#Cc1c(-c2ccccc2)nc2c(c(-c3ccccc3)nn2-c2ccccc2)c1-c1ccc(O)cc1 | 66

tested on: SW-620; assay: Antiproliferative activity against human SW-620 cells assessed as growth inhibition at 10 uM measured after 48 hrs by NCI protocol based SRB assay relative to control; assay type: functional; conditions: read-out: GI

SMILES | inhibition of growth at 10 µM [%]
N#Cc1c(-c2ccccc2)nc2c(c(-c3ccccc3)nn2-c2ccccc2)c1-c1ccc(O)cc1 | 84

tested on: SF-268; assay: Antiproliferative activity against human SF-268 cells assessed as growth inhibition at 10 uM measured after 48 hrs by NCI protocol based SRB assay relative to control; assay type: functional; conditions: read-out: GI

SMILES | inhibition of growth at 10 µM [%]
N#Cc1c(-c2ccccc2)nc2c(c(-c3ccccc3)nn2-c2ccccc2)c1-c1ccc(O)cc1 | 45

tested on: SNB-75; assay: Antiproliferative activity against human SNB-75 cells assessed as growth inhibition at 10 uM measured after 48 hrs by NCI protocol based SRB assay relative to control; assay type: functional; conditions: read-out: GI

SMILES | inhibition of growth at 10 µM [%]
N#Cc1c(-c2ccccc2)nc2c(c(-c3ccccc3)nn2-c2ccccc2)c1-c1ccc(O)cc1 | 67

tested on: SNB-19; assay: Antiproliferative activity against human SNB-19 cells assessed as growth inhibition at 10 uM measured after 48 hrs by NCI protocol based SRB assay relative to control; assay type: functional; conditions: read-out: GI

SMILES | inhibition of growth at 10 µM [%]
N#Cc1c(-c2ccccc2)nc2c(c(-c3ccccc3)nn2-c2ccccc2)c1-c1ccc(O)cc1 | 61

tested on: U-251; assay: Antiproliferative activity against human U-251 cells assessed as growth inhibition at 10 uM measured after 48 hrs by NCI protocol based SRB assay relative to control; assay type: functional; conditions: read-out: GI

SMILES | inhibition of growth at 10 µM [%]
N#Cc1c(-c2ccccc2)nc2c(c(-c3ccccc3)nn2-c2ccccc2)c1-c1ccc(O)cc1 | 76

tested on: M14; assay: Antiproliferative activity against human M14 cells assessed as growth inhibition at 10 uM measured after 48 hrs by NCI protocol based SRB assay relative to control; assay type: functional; conditions: read-out: GI

SMILES | inhibition of growth at 10 µM [%]
N#Cc1c(-c2ccccc2)nc2c(c(-c3ccccc3)nn2-c2ccccc2)c1-c1ccc(O)cc1 | 44

tested on: SK-MEL-5; assay: Antiproliferative activity against human SK-MEL-5 cells assessed as growth inhibition at 10 uM measured after 48 hrs by NCI protocol based SRB assay relative to control; assay type: functional; conditions: read-out: GI

SMILES | inhibition of growth at 10 µM [%]
N#Cc1c(-c2ccccc2)nc2c(c(-c3ccccc3)nn2-c2ccccc2)c1-c1ccc(O)cc1 | 42

tested on: SK-MEL-28; assay: Antiproliferative activity against human SK-MEL-28 cells assessed as growth inhibition at 10 uM measured after 48 hrs by NCI protocol based SRB assay relative to control; assay type: functional; conditions: read-out: GI

SMILES | inhibition of growth at 10 µM [%]
N#Cc1c(-c2ccccc2)nc2c(c(-c3ccccc3)nn2-c2ccccc2)c1-c1ccc(O)cc1 | 51

tested on: UACC-62; assay: Antiproliferative activity against human UACC-62 cells assessed as growth inhibition at 10 uM measured after 48 hrs by NCI protocol based SRB assay relative to control; assay type: functional; conditions: read-out: GI

SMILES | inhibition of growth at 10 µM [%]
N#Cc1c(-c2ccccc2)nc2c(c(-c3ccccc3)nn2-c2ccccc2)c1-c1ccc(O)cc1 | 39

tested on: UACC-257; assay: Antiproliferative activity against human UACC-257 cells assessed as growth inhibition at 10 uM measured after 48 hrs by NCI protocol based SRB assay relative to control; assay type: functional; conditions: read-out: GI

SMILES | inhibition of growth at 10 µM [%]
N#Cc1c(-c2ccccc2)nc2c(c(-c3ccccc3)nn2-c2ccccc2)c1-c1ccc(O)cc1 | 29

tested on: OVCAR-8; assay: Antiproliferative activity against human OVCAR-8 cells assessed as growth inhibition at 10 uM measured after 48 hrs by NCI protocol based SRB assay relative to control; assay type: functional; conditions: read-out: GI

SMILES | inhibition of growth at 10 µM [%]
N#Cc1c(-c2ccccc2)nc2c(c(-c3ccccc3)nn2-c2ccccc2)c1-c1ccc(O)cc1 | 45

tested on: NCI/ADR-RES; assay: Antiproliferative activity against human NCl/ADR-RES cells assessed as growth inhibition at 10 uM measured after 48 hrs by NCI protocol based SRB assay relative to control; assay type: functional; conditions: read-out: GI

SMILES | inhibition of growth at 10 µM [%]
N#Cc1c(-c2ccccc2)nc2c(c(-c3ccccc3)nn2-c2ccccc2)c1-c1ccc(O)cc1 | 30

tested on: 786-0; assay: Antiproliferative activity against human 786-0 cells assessed as growth inhibition at 10 uM measured after 48 hrs by NCI protocol based SRB assay relative to control; assay type: functional; conditions: read-out: GI

SMILES | inhibition of growth at 10 µM [%]
N#Cc1c(-c2ccccc2)nc2c(c(-c3ccccc3)nn2-c2ccccc2)c1-c1ccc(O)cc1 | 97

tested on: CAKI-1; assay: Antiproliferative activity against human CAKI-1 cells assessed as growth inhibition at 10 uM measured after 48 hrs by NCI protocol based SRB assay relative to control; assay type: functional; conditions: read-out: GI

SMILES | inhibition of growth at 10 µM [%]
N#Cc1c(-c2ccccc2)nc2c(c(-c3ccccc3)nn2-c2ccccc2)c1-c1ccc(O)cc1 | 48

tested on: A498; assay: Antiproliferative activity against human A498 cells assessed as growth inhibition at 10 uM measured after 48 hrs by NCI protocol based SRB assay relative to control; assay type: functional; conditions: read-out: GI

SMILES | inhibition of growth at 10 µM [%]
N#Cc1c(-c2ccccc2)nc2c(c(-c3ccccc3)nn2-c2ccccc2)c1-c1ccc(O)cc1 | 101

tested on: UO-31; assay: Antiproliferative activity against human UO-31 cells assessed as growth inhibition at 10 uM measured after 48 hrs by NCI protocol based SRB assay relative to control; assay type: functional; conditions: read-out: GI

SMILES | inhibition of growth at 10 µM [%]
N#Cc1c(-c2ccccc2)nc2c(c(-c3ccccc3)nn2-c2ccccc2)c1-c1ccc(O)cc1 | 73

tested on: PC-3; assay: Antiproliferative activity against human PC-3 cells assessed as growth inhibition at 10 uM measured after 48 hrs by NCI protocol based SRB assay relative to control; assay type: functional; conditions: read-out: GI

SMILES | inhibition of growth at 10 µM [%]
N#Cc1c(-c2ccccc2)nc2c(c(-c3ccccc3)nn2-c2ccccc2)c1-c1ccc(O)cc1 | 96

tested on: DU-145; assay: Antiproliferative activity against human DU-145 cells assessed as growth inhibition at 10 uM measured after 48 hrs by NCI protocol based SRB assay relative to control; assay type: functional; conditions: read-out: GI

SMILES | inhibition of growth at 10 µM [%]
N#Cc1c(-c2ccccc2)nc2c(c(-c3ccccc3)nn2-c2ccccc2)c1-c1ccc(O)cc1 | 51

tested on: MDA-MB-231; assay: Antiproliferative activity against human MDA-MB-231 cells assessed as growth inhibition at 10 uM measured after 48 hrs by NCI protocol based SRB assay relative to control; assay type: functional; conditions: read-out: GI

SMILES | inhibition of growth at 10 µM [%]
N#Cc1c(-c2ccccc2)nc2c(c(-c3ccccc3)nn2-c2ccccc2)c1-c1ccc(O)cc1 | 77

tested on: MCF7; assay: Antiproliferative activity against human MCF7 cells assessed as growth inhibition at 10 uM measured after 48 hrs by NCI protocol based SRB assay relative to control; assay type: functional; conditions: read-out: GI

SMILES | inhibition of growth at 10 µM [%]
N#Cc1c(-c2ccccc2)nc2c(c(-c3ccccc3)nn2-c2ccccc2)c1-c1ccc(O)cc1 | 86

tested on: T47D; assay: Antiproliferative activity against human T47D cells assessed as growth inhibition at 10 uM measured after 48 hrs by NCI protocol based SRB assay relative to control; assay type: functional; conditions: read-out: GI

SMILES | inhibition of growth at 10 µM [%]
N#Cc1c(-c2ccccc2)nc2c(c(-c3ccccc3)nn2-c2ccccc2)c1-c1ccc(O)cc1 | 65

tested on: Hs-578T; assay: Antiproliferative activity against human Hs-578T cells assessed as growth inhibition at 10 uM measured after 48 hrs by NCI protocol based SRB assay relative to control; assay type: functional; conditions: read-out: GI

SMILES | inhibition of growth at 10 µM [%]
N#Cc1c(-c2ccccc2)nc2c(c(-c3ccccc3)nn2-c2ccccc2)c1-c1ccc(O)cc1 | 85

tested on: MV4-11; assay: Antiproliferative activity against human MV4-11 cells assessed as reduction in cell viability incubated for 72 hrs by resazurin dye based assay; assay type: functional; conditions: MV4-11, 72 h

SMILES | IC50 [µM]
N#Cc1c(-c2ccccc2)nc2c(c(-c3ccccc3)nn2-c2ccccc2)c1-c1ccc(O)cc1 | 26.1
